Consider seven compounds from patent US20200079765A1, “SUBSTITUTED HETEROARYL PYRROLONES AND SALTS THEREOF AND USE THEREOF AS HERBICIDAL ACTIVE SUBSTANCES” (Bayer CropScience Aktiengesellschaft, priority 2016, published 2020).

For one assay, the target named is T1, photosystem II (PS II) (Spinacia oleracea, UniProt P69560).
T1 construct: the chloroplasts were osmotically ruptured and the thylakoid membranes were then obtained by centrifugation; from tissue; host or cells: thylakoid membranes from fresh spinach leaves
Description: Measurement of the PS II activity in thylakoid membranes (DCPIP reduction, Experimental Part 3, Table E1). Type of assay: biochemical. To be noted: spinach thylakoid membranes. The method, then: Cooled fresh spinach leaves were comminuted and homogenized in 50 mM phosphate buffer, pH 6.8. 10 mM KCl, 0.34 M sucrose (sucrose buffer) (blender, 1 g of plant material/ml). The homogenate was subsequently filtered through 4 layers of Miracloth and the chloroplasts were isolated by centrifugation, i.e. 10 min of centrifugation at 4400×g (4° C.). The sediment was suspended in 25 ml of sucrose buffer and re-centrifuged for 10 min at 4400×g (4° C.). The sediment was then suspended in 40 ml of 50 mM phosphate buffer, pH 6.8, 10 mM KCl, without sucrose. In this step, the chloroplasts were osmotically ruptured and the thylakoid membranes were then obtained by centrifugation (10 min, 4400×g, 4° C.). The membrane sediment was finally suspended in about 20 ml of 50 mM phosphate buffer, pH 6.8, 10 mM KCl. Following protein determination and activity determination, the membrane suspension was divided into aliquots and frozen in liquid nitrogen. The aliquots were stored at −80° C. Under these conditions, the photosystem II preparation was storage stable for at least three months. The activity determination of photosystem II (PS II) was then carried out using the following test principle: The electron transfer from PS II to an artificial electron acceptor, 2,6-dichlorophenolindophenol (DCPIP), was measured with exposure to light. The concentration of the blue oxidized form of DCPIP was determined spectrophotometrically at wavelength λ=595 nm. […] The activity determination was carried out in microtiter plates (96 cavities) in a reaction volume of 200 μl. Here, 155 μl of dilute membrane suspension were initially charged in 50 mM of phosphate buffer, pH 6.8, 10 mM KCl. Depending on the activity of the PS II preparation, the dilution was adjusted such that the measurement of the decrease in absorption (λ=595 nm) was linear for at least 10 min. In each case 5 μl solution of the test compounds of a concentration of 100 μM in DMSO were added to the enzyme suspension; controls contained 5 μl DMSO; the final concentration of DMSO in the reaction batch was thus 2.5% (v/v); this concentration had no adverse effect on the enzymatic activity. On each microtiter plate, a known PS II inhibitor, for example metribuzin, was used as standard, which allowed the quality of the PS II test to be assessed. The reaction was started by addition of 40 μl DCPIP solution (600 μM in distilled water); the final concentration of DCPIP was 120 μM. Measurement of absorption was carried out over a period of 10 min at 22° C. and with exposure to light. Using metribuzin as comparative substance, the results for the efficacy of the compounds of the general formula (I) at 100 μM are stated in the table below using the following classification: ++++ (inhibition≥90%), +++ (90%>inhibition≥70%), ++ (70%>inhibition≥50%), + (50%>inhibition≥30%).
Effects of selected compounds of the general formula (I) according to the following table E1: […]

Assay [1] concerns Abutilon theophrasti. Kind of assay: Herbicidal post-emergence action (Experimental Part 2, C). Type of assay: in vivo. Conditions: post-emergence (Part 2), rated visually after about 3 weeks. The protocol: (§1) Seeds of mono- and dicotyledonous weed plants were placed in plastic pots in sandy loam soil (doubly sown with in each case one species of mono- or dicotyledonous weed plants per pot), covered with soil and cultivated in a greenhouse under controlled growth conditions. 2 to 3 weeks after sowing, the test plants were treated at the one-leaf stage. The compounds of the invention, formulated in the form of wettable powders (WP) or as emulsion concentrates (EC), were applied onto the green parts of the plants as aqueous suspension or emulsion with addition of 0.5% additive at a water application rate of 600 liters per hectare (converted). After the test plants had been kept in the greenhouse under optimum growth conditions for about 3 weeks, the activity of the preparations was rated visually in comparison to untreated controls. For example, 100% activity=the plants have died, 0% activity=like control plants. Tables C1 to C8 below show the effects of selected compounds of the general formula (I) according to Tables I.1 to I.116 on various harmful plants and an application rate corresponding to 1280 g/ha or 320 g/ha, which were obtained by the experimental procedure mentioned above.

The test system of assay [2] is Amaranthus retroflexus. The description is as above. To be noted: post-emergence (Part 2), rated visually after about 3 weeks. The assay is classed as in vivo. The protocol: as §1
Assay [3] relates to Matricaria inodora. The assay is described as above. Type of assay: in vivo. Conditions: post-emergence (Part 2), rated visually after about 3 weeks. The method, then:
as §1

In assay [4] the test system is Setaria viridis. The description is as above. The assay is classed as in vivo. To be noted: post-emergence (Part 2), application rate 1280 g/ha, rated visually after about 3 weeks. The protocol:
as §1

For assay [5], the system named is Stellaria media. The description is as above. Type of assay: in vivo. To be noted: post-emergence (Part 2), rated visually after about 3 weeks. The protocol: as §1
Assay [6] deals with Abutilon theophrasti. Description: Herbicidal pre-emergence action (Experimental Part 2, D). Type of assay: in vivo. Conditions: pre-emergence (Part 2), application rate 1280 g/ha, scored visually after about 3 weeks. The source says:
(§2) Seeds of mono- and dicotyledonous weed plants were placed in plastic pots in sandy loam soil (doubly sown with in each case one species of mono- or dicotyledonous weed plants per pot) and covered with soil. The compounds of the invention, formulated in the form of wettable powders (WP) or as emulsion concentrates (EC), were then applied onto the surface of the covering soil as aqueous suspension or emulsion with addition of 0.5% additive at a water application rate of 600 liters per hectare (converted). After the treatment, the pots are placed in a greenhouse and kept under good growth conditions for the trial plants. After about 3 weeks, the effect of the preparations was scored visually in comparison with untreated controls as percentages. For example, 100% activity=the plants have died, 0% activity=like control plants. Tables D1 to D8 below show the effects of selected compounds of the general formula (I) according to Tables I.1 to I.116 on various harmful plants and an application rate corresponding to 1280 g/ha or 320 g/ha, which were obtained by the experimental procedure mentioned above.

Assay [7] concerns Amaranthus retroflexus. The description is as above. Type of assay: in vivo. Conditions: pre-emergence (Part 2), scored visually after about 3 weeks.
Text: as §2

Assay [8] has as its system Matricaria inodora. Described as above. Type of assay: in vivo. Conditions: pre-emergence (Part 2), scored visually after about 3 weeks.
Text: as §2

The test system of assay [9] is Poa annua. Description: Herbicidal post-emergence action (Experimental Part 2, C). To be noted: post-emergence (Part 2), rated visually after about 3 weeks. The assay is classed as in vivo. The protocol: as §1
For the next assay, the system named is Lolium rigidum. Kind of assay: Herbicidal pre-emergence action (Experimental Part 2, D). Conditions: pre-emergence (Part 2), application rate 1280 g/ha, scored visually after about 3 weeks. Type of assay: in vivo.
Text: as §2

Assay [10] relates to Poa annua. Described as above. The assay is classed as in vivo. Conditions: pre-emergence (Part 2), scored visually after about 3 weeks.
Text: as §2

Assay [11] has as its system Setaria viridis. The description is as above. The assay is classed as in vivo. To be noted: pre-emergence (Part 2), application rate 1280 g/ha, scored visually after about 3 weeks.
Text: as §2

Assay [12] has as its system Stellaria media. The assay is described as above. The assay is classed as in vivo. To be noted: pre-emergence (Part 2), scored visually after about 3 weeks.
Text: as §2

For assay [13], the system named is Amaranthus retroflexus. Description: Pre-emergence herbicidal action (Experimental Part 1, B). The assay is classed as in vivo. Conditions: application rate 1280 g/ha, scored visually after about 3 weeks. From the text: Seeds of monocotyledonous and dicotyledonous weed plants and crop plants were placed in plastic or organic planting pots and covered with soil. The compounds of the invention, formulated in the form of wettable powders (WP) or as emulsion concentrates (EC), were then applied onto the surface of the covering soil as aqueous suspension or emulsion with addition of 0.5% additive at a water application rate of 600 l/ha (converted). After the treatment, the pots were placed in a greenhouse and kept under good growth conditions for the test plants. After about 3 weeks, the effect of the preparations was scored visually in comparison with untreated controls as percentages. For example, 100% activity=the plants have died, 0% activity=like control plants. Tables B1 to B14 below show the effects of selected compounds of the general formula (I) according to Tables I.1 to I.116 on various harmful plants and an application rate corresponding to 1280 g/ha or 320 g/ha, which were obtained by the experimental procedure mentioned above.

As for `CC1=CC(=O)N(c2cc(C(F)(F)F)ccn2)C1O` (stereo not shown) [I.1-449], the “Effect (inhibition of PS II activity)” value on photosystem II (PS II) is on record as “++++ (inhibition≥90%)”.

Turning to `CC1=CC(=O)N(c2cscn2)C1O` (stereo not shown) [I.1-91], the “Abutilon theophrasti, herbicidal activity” value (shortened to “Abutilon theophrasti”) with Abutilon theophrasti [1] (application rate 1280 g/ha) and in the assay on Abutilon theophrasti [6] was 100% in each case. For the same compound, the “Amaranthus retroflexus, herbicidal activity” value (from here on “Amaranthus retroflexus”) in the assay with Amaranthus retroflexus [2] (application rate 320 g/ha) and with Amaranthus retroflexus [7] (application rate 320 g/ha) was 100% each time. Also, the “Matricaria inodora, herbicidal activity” value with Matricaria inodora [3] (application rate 1280 g/ha) is listed as 100%; in the assay on Matricaria inodora [8] (application rate 1280 g/ha) it was 90%. Also, the “Setaria viridis, herbicidal activity” value in the assay on Setaria viridis [4] is reported as 100%. In addition, the “Stellaria media, herbicidal activity” value in the assay with Stellaria media [5] (application rate 1280 g/ha) is 100%.

With `CC(=O)OC1C(C)=CC(=O)N1c1cc(C(F)(F)F)c(Cl)cn1` (stereo not shown) [I.3-451], in the assay on Abutilon theophrasti [1] (application rate 320 g/ha), the “Abutilon theophrasti” value is given as 100%. Further, the “Amaranthus retroflexus” value with Amaranthus retroflexus [2] (application rate 1280 g/ha) is 100%. Also, the “Matricaria inodora, herbicidal activity” value in the assay with Matricaria inodora [3] (application rate 320 g/ha) was found to be 90%. The “Poa Annua, herbicidal activity” value is recorded as 100% with Poa annua [9] (application rate 320 g/ha) and 90% in the assay on Poa annua [10] (application rate 320 g/ha). Moreover, the “Stellaria media, herbicidal activity” value in the assay on Stellaria media [5] (application rate 320 g/ha) and in the assay with Stellaria media [12] (application rate 320 g/ha) was 100% throughout. Moreover, the “Lolium rigidum, herbicidal activity” value in the assay with Lolium rigidum was 90%. The “Setaria viridis, herbicidal activity” value with Setaria viridis [11] came out at 100%. Moreover, the “Effect (inhibition of PS II activity)” value on photosystem II (PS II) is reported as “+++ (90%>inhibition≥70%)”.

Turning to `CC1=CC(O)N(c2cc(-c3ccccc3)ns2)C1=O` (stereo not shown) [I.2-86], the “Effect (inhibition of PS II activity)” value at photosystem II (PS II) is recorded as “++++ (inhibition≥90%)”.

Consider `CC(=O)OC1C(C)=CC(=O)N1c1cc(C(C)(C)C)no1` (stereo not shown) [I.3-290], for which the “Amaranthus retroflexus” value in the assay on Amaranthus retroflexus [13] and in the assay on Amaranthus retroflexus [7] (application rate 1280 g/ha) was 90% each time. In addition, the “Abutilon theophrasti” value in the assay on Abutilon theophrasti [1] (application rate 1280 g/ha) and with Abutilon theophrasti [6] was 100% throughout. In addition, the “Matricaria inodora, herbicidal activity” value in the assay with Matricaria inodora [3] (application rate 1280 g/ha) amounted to 90%; with Matricaria inodora [8] (application rate 1280 g/ha), 100%. For the same compound, the “Poa Annua, herbicidal activity” value is given as 100% in the assay with Poa annua [9] (application rate 1280 g/ha) and 90% in the assay on Poa annua [10] (application rate 1280 g/ha). For the same compound, the “Setaria viridis, herbicidal activity” value in the assay on Setaria viridis [11] is given as 90%. Moreover, the “Stellaria media, herbicidal activity” value in the assay on Stellaria media [12] (application rate 1280 g/ha) is recorded as 100%.

Consider `CCC(=O)OC1C(C)=CC(=O)N1c1cc(C(C)(C)C)no1` (stereo not shown) [I.5-290], for which the “Abutilon theophrasti” value in the assay on Abutilon theophrasti [1] (application rate 1280 g/ha) and in the assay on Abutilon theophrasti [6] was 100% throughout. The “Matricaria inodora, herbicidal activity” value with Matricaria inodora [3] (application rate 1280 g/ha) and with Matricaria inodora [8] (application rate 320 g/ha) was 100% throughout. The “Stellaria media, herbicidal activity” value in the assay with Stellaria media [5] (application rate 1280 g/ha) and in the assay on Stellaria media [12] (application rate 320 g/ha) was 100% in each case. Also, the “Lolium rigidum, herbicidal activity” value in the assay on Lolium rigidum worked out at 90%. Moreover, in the assay with Poa annua [10] (application rate 320 g/ha), the “Poa Annua, herbicidal activity” value was found to be 90%. For the same compound, in the assay with Setaria viridis [11], the “Setaria viridis, herbicidal activity” value is on record as 90%.

In the case of `CC1=CC(=O)N(c2cc(C(C)(C)C)n(C)n2)C1O` (stereo not shown) [I.1-315], the “Effect (inhibition of PS II activity)” value on photosystem II (PS II) was “++++ (inhibition≥90%)”.
